According to patent publication US11938153B2, “Methods of treating T cell exhaustion by inhibiting or modulating T cell receptor signaling” (THE BOARD OF TRUSTEES OF THE LELAND STANFORD JUNIOR …, priority 2017, dated 2024):
Values belong to the compound of their own block, whether it stands above or below them.

What was measured:
GD2.28z.FKBP CAR = molecular target: T1, GD2.28z.FKBP CAR (Homo sapiens, UniProt P62942, E32G/F37V/K106E/R72G); assay: Regulation of GD2.28z.FKBP CAR surface expression by shield-1 (FACS); format: cell-based; details: adding or subtracting S1 in culture medium
T1 construct: expressed in transfected cells; host or cells: T cells, lentiviral transduction
T1 sequence (P62942 2-108 E32G/F37V/R72G/K106E): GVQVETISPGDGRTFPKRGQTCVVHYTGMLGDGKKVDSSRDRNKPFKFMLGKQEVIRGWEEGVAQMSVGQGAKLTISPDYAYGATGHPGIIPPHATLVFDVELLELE
Excerpt: FIG. 1: Characterization of the GD2.28z.FKBP CAR. T cells were transduced with lentivirus encoding the GD2.28z.FKBP CAR on day 1 after activation and subsequently cultured with various concentrations of shield-1 in the growth medium. On day 7, CAR expression was quantified via FACS.

[1] = test system: HA-GD2.28z.FKBP CAR T cells; assay: Sorted PD-1/TIM-3/LAG-3 triple positive HA-GD2.28z.FKBP CAR T cells re-cultured with or without S1 (FACS, co-culture); format: cell-based, human
Excerpt: Functional studies by several groups, including our lab have verified that co-expression of PD-1, TIM-3, and LAG-3 (triple positive, TP) denotes an exhausted cell subset that is highly dysfunctional. We thus sought to analyze whether cessation of tonic signaling in this cell subset could reverse their phenotype and restore their ability to secrete IL-2 in response to tumor antigen. […] On day 10 post-activation, HA-GD2.28z.FKBP CAR T cells that had experienced continuous S1 treatment were sorted in order to isolate a pure PD-1/TIM-3/LAG-3 exhausted population. “Triple positive” exhausted cells were then re-cultured either with or without S1 to test whether removal of tonic signaling could restore their function. FACS and co-culture assays were conducted 4 days later.

GD2.28z.FKBP CAR T cells [2] = assay: Exhaustion phenotype of GD2.28z.FKBP CAR T cells after S1 removal (FACS); format: cell-based, human
Excerpt: Since tonic signaling is highly dependent upon GD2-CAR receptor levels, precise control of CAR expression levels also precisely regulates levels of tonic signaling. Drug regulated control of levels of CAR expression therefore also allowed modulation of the duration and intensity of GD2.28z tonic signaling. […] This is most well illustrated by measuring levels of PD-1/TIM-3/LAG-3 triple expressing cell which is highly specific for dysfunctional, exhausted T cells. […] Similar results were obtained on day 14 for cells in which S1 was removed from culture medium on day 7 or day 10 (not shown).

Her2.28z.FKBP = molecular target: T2, Her2.28z.FKBP (Homo sapiens, UniProt P62942, E32G/F37V/K106E/R72G); assay: Regulation of Her2.28z.FKBP CAR expression by shield-1 (protein L stain, FACS); format: cell-based; details: 0.1 uM or 1 uM, 24 hours after addition of drug
T2 construct: expressed in transfected cells; host or cells: T cells, lentiviral transduction
T2 sequence (P62942 2-108 E32G/F37V/R72G/K106E): as above
Protocol: The FKBP12 DD domain was fused to the far c-terminus of the Her2.28z CAR. T cells were transduced with lentivirus to express the Her2.28z.FKBP. […] 24 hours after addition of drug, CAR T cells were stained with protein L and CAR expression was assessed via FACS. Both the percentage of CAR+ cells (quantified in the histograms) as well as CAR MFI are increased upon incubation with either 0.1 uM or 1 uM Shield-1 (S1).

HA-GD2.28z.FKBP = assay: Exhaustion marker co-expression on HA-GD2.28z.FKBP CAR T cells; format: cell-based, human; details: upon removal of shield-1 from the culture medium
Protocol: When assessing IL-2 and IFNγ, cells were surface stained, then fixed and permeablized (eBioscience) prior to incubation with intracellular antibodies.
T cells were removed from culture, fixed in 2% PFA for 10 minutes at room temperature, pelleted and frozen at −80C. Upon thawing, each sample was barcoded with a 20-plex Pd harcoding kit (FIuidigm). Cell samples were then pooled and stained for surface marker expression with heavy-metal conjugated antibodies for 30 minutes at room temperature. Cells were then permeablized in methanol and subsequently stained with heavy metal-conjugated anti-human T-bet (4B10, Biolegend) and anti-human Blimp-1 (ROS195G, Biolegend) for 30 minutes at room temperature. Samples were run on a Helios mass cytometer (Fluidigm) and analyses were complete using Cytobank online software.
It was next determined whether the prevention or reversal of tonic signaling in HA-GD2.28z.FKBP-expressing CAR T cells altered their exhaustion phenotype.

[3] = test system: HA-GD2.28z.FKBP CAR T cells; assay: Western blot of CAR CD3-zeta phosphorylation (tonic signaling); format: cell-based, human; details: cultured in the absence of S1 (CAR Always OFF)
Excerpt: This phenotype was also reversible, as indicated by the lack of CD3-zeta phosphorylation in DD-CAR T cells that were initially cultured with S1, but then had drug removed on day 7 of the culture (FIG. 16, CAR OFF D7).

GD2.28z.FKBP CAR T cells [4] = assay: IL-2 secretion of GD2.28z.FKBP CAR T cells in co-culture with Nalm6 cells expressing GD2 (ELISA); format: cell-based, human
Protocol: Because phenotypic markers may not be entirely predictive of T cell function, we also performed functional experiments on CAR T cells provided transient drug exposure in culture. CAR T cells were washed, resuspended in media containing S1, and mixed at a 1:1 ratio with Nalm6 leukemic cells stably expressing surface GD2. Culture supernatants were harvested approximately 24 hours later and cytokine levels were evaluated via ELISA.
Similar to GD2.28z CAR that lacks a destabilization domain and therefore have persistent high levels of CAR signaling, cells expressing the GD2.28z.FKBP CAR that experienced continuous drug treatment (FIG. 4, grey bars) secreted minimal amounts of IL-2 on both day 10 and day 14 post-activation, consistent with T cell exhaustion.

NALM6-GL-GD2 = details: mice that received TMP
Protocol: At day 7 post-engraftment, 1-5×10^6 GD2.28z.DHFR or HA-GD2.28z.DHFR CAR+ T cells were infused intravenously.
Mice were then injected with either stabilizing drug or vehicle control every day thereafter.
To test this, antigen-bearing tumor cells were engrafted into NSG mice and subsequently infused 2-5E6 HA-GD2.28z.DHFR-expressing T cells. Mice were dosed with TMP everyday thereafter.

[5] = S1 removed day 7 or 10, read day 14, vs continuous S1

regulation of CAR surface expression (GD2.28z.FKBP CAR): rapidly and dose-dependently regulated | CAR MFI (Her2.28z.FKBP): increased | percentage of CAR+ cells (Her2.28z.FKBP): increased
Compound: CC[C@H](C(=O)N1CCCC[C@H]1C(=O)O[C@H](CCc1ccc(OC)c(OC)c1)c1cccc(OCCN2CCOCC2)c1)c1cc(OC)c(OC)c(OC)c1 [shield-1]
expression of exhaustion markers ([1]; 4 days without S1, CD4+ and CD8+ CAR T cells): far less expression of exhaustion markers | increase in IL-2 secretion ([1]; removal of S1 vs continuous S1 days 10-14): 2 fold | apoptosis (annexin V staining) (GD2.28z.FKBP CAR T cells [2]; [5]): prevention of apoptosis | memory markers (CD62L) (GD2.28z.FKBP CAR T cells [2]; [5]): maintenance of memory markers | canonical exhaustion marker expression (GD2.28z.FKBP CAR T cells [2]; S1 removed day 7 post-activation, read day 10): reverses canonical exhaustion marker expression to control levels | co-expression of canonical exhaustion markers (HA-GD2.28z.FKBP): rapidly downregulated | CD3-zeta phosphorylation [3]: absent | IL-2 secretion (GD2.28z.FKBP CAR T cells [4]; S1 removed day 7, vs continuous S1): superior IL-2 secretion | IL-2 secretion of exhausted T cells after rest (GD2.28z.FKBP CAR T cells [4]; S1 removed day 10, rested 4 days, day 14 ELISA): reinvigorated | augmentation of IL-2 secretion (GD2.28z.FKBP CAR T cells [4]; cultured without S1, S1 added back just prior to co-culture, vs continuous S1): 5-10 fold

Compound: COc1cc(Cc2cnc(N)nc2N)cc(OC)c1OC [trimethoprim]
CD69 surface expression of CAR T cells (NALM6-GL-GD2): higher CD69 surface expression

Compound: nivolumab: anti-PD-1 checkpoint inhibitor
IL-2 secretion (GD2.28z.FKBP CAR T cells [4]; continuous S1 + nivolumab, day 10, sustained until day 14): only modest augmentation of IL-2 secretion
